In data set [1] the target is T1, human MCHR1 (Homo sapiens, UniProt Q99705).
T1 construct: expressed in transfected cells; host or cells: CHO cell clone 57 (membrane fraction)
Briefly: Human MCH receptor 1 (MCHR1) competitive binding assay, [125I]-MCH(4-19), CHO cell membrane fraction. The following applies: test compound 0.1 μM, human MCHR1-expressing CHO cell membrane, 25° C., 1 hr, read-out: Binding inhibition rate (0.1 μM). The method, then:
Determination of Human MCH Receptor 1 (MCHR1) Competitive Inhibitory Activity of Test Compound Using Binding Assay
Using human MCHR1(=SLC-1 receptor)-expressing CHO cell clone 57 and rat MCHR1-expressing CHO cell clone 44 described in WO01/82925, MCHR1-expressing CHO cellular membrane fractions were prepared by the following method. In phosphate buffered saline (pH 7.4) supplemented with 5 mM EDTA (ethylenediaminetetraacetic acid) were respectively suspended human and rat MCHR1-expressing CHO cells (1×10^8 cells) and centrifuged. Homogenate buffer (10 mL, 10 mM NaHCO3, 5 mM EDTA, pH 7.5, 0.5 mM PMSF (phenylmethylsulfonyl fluoride), 20 mg/L leupeptin, 4 mg/L E-64, 1 mg/L pepstatin A) was added to the pellets of the cells and, using Polytron Homogenizer, the mixture was homogenated. The supernatant obtained after centrifugation at 400×g for 10 min was further centrifuged at 100,000×g for 1 hr to give precipitate of the membrane fraction. The precipitate were suspended in 2 mL of assay buffer [20 mM Tris-HCl (pH 7.5), 5 mM EDTA, 0.5 mM PMSF, 20 mg/L leupeptin, 4 mg/L E-64, 1 mg/L pepstatin A]. The membrane fractions were suspended in assay buffer to a protein concentration of 2 mg/mL, and after dispensing, preserved at −80° C. and used upon thawing each time when in use.
The MCHR1 ligand binding inhibitory activity of the test compound was determined as follows. An MCHR1-expressing CHO cellular membrane fraction (175 μL) diluted with an assay buffer was dispensed to a 96 well polypropylene plate (3363, Corning). DMSO solution (2 μL), 100 μm cold MCH(1-19) diluted with DMSO solution (2 μL), or a test compound solution diluted with DMSO solution to various concentrations (2 μL) was added, and lastly, [^125I]-MCH(4-19) diluted with assay buffer (25 μL) was added to each well. The reaction mixture was reacted at 25° C. for 1 hr with stirring, and the reaction mixture was filtered by suction using a glass filter plate (GF/C, PerkinElmer). The filter was washed 3 times with a wash solution (300 μL, 50 mM Tris-HCl buffer, pH 7.5). The glass filter plate was dried, a liquid scintillator was added at 25 μL/well, and the residual radioactivity was measured by TopCount (PerkinElmer). The binding inhibition rate of the test compound was calculated by the following formula. Binding inhibition (%)=(radioactivity upon addition of test compound and hot MCH−radioactivity upon addition of cold MCH and hot MCH solution)/(radioactivity upon addition of DMSO solution and hot MCH−radioactivity upon addition of cold MCH and hot MCH solution)×100

The values below come from US8642770B2, “Indole derivative” (Takeda Pharmaceutical Company Limited, priority 2010, dated 2014).

Structures are written as SMILES.

T1 sequence (Q99705 whole entry): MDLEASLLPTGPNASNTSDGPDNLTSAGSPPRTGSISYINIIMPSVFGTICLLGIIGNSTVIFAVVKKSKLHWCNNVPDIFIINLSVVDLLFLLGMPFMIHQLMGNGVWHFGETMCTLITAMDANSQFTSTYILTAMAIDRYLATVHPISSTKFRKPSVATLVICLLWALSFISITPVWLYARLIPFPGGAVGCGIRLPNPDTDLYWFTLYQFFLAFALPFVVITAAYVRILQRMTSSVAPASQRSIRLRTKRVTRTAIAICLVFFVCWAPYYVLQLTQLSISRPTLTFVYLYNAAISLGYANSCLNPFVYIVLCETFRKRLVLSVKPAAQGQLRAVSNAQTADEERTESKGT

In general, inhibition refers to the relative decrease from the control value, in per cent. Turning to `Cn1c(CN[C@H]2CC[C@](C)(O)CC2)cc2cc(NC(=O)c3ccc(OCC4CC4)cc3)ccc21` [Example 12, 4-(cyclopropylmethoxy)-N-(2-{[(trans-4-hydroxy-4-methylcyclohexyl)amino]methyl}-1-methyl-1H-indol-5-yl)benzamide], the inhibition at 0.1 µM in data set [1] worked out at 98%. Broadly, the melting point is the temperature, or range, at which the solid turns liquid. The compound `Cc1c(NC(=O)c2ccc(OC[C@@H]3CCCO3)cc2)ccc2cc(CN3CCC(C)(O)CC3)n(C)c12` [Example 87, N-{2-[(4-hydroxy-4-methylpiperidin-1-yl)methyl]-1,7-dimethyl-1H-indol-6-yl}-4-[(2S)-tetrahydrofuran-2-ylmethoxy]benzamide] came in with a melting point of 140 to 141 °C. On the same count and under the same terms, the result for `Cc1c(NC(=O)c2ccc(OC[C@@H]3CCCO3)cc2F)ccc2cc(CNCC(C)(C)O)n(C)c12` [Example 89, 2-fluoro-N-(2-{[(2-hydroxy-2-methylpropyl)amino]methyl}-1,7-dimethyl-1H-indol-6-yl)-4-[(2S)-tetrahydrofuran-2-ylmethoxy]benzamide] reads 132 to 133 °C; that for `Cc1c(NC(=O)c2ccc(C#CC3(O)CC3)cc2)ccc2cc(CNCC(C)C)n(C)c12` [Example 90, N-(1,7-dimethyl-2-{[(2-methylpropyl)amino]methyl}-1H-indol-6-yl)-4-[(1-hydroxycyclopropyl)ethynyl]benzamide], 186 °C. The same measure, in the same setting: the result for `Cc1c(NC(=O)c2ccc(C#CC3(O)CC3)cc2)ccc2cc(CNCC(C)(C)C)n(C)c12` [Example 91, N-(2-{[(2,2-dimethylpropyl)amino]methyl}-1,7-dimethyl-1H-indol-6-yl)-4-[(1-hydroxycyclopropyl)ethynyl]benzamide] reads 182 to 183 °C.

With `Cc1c(NC(=O)c2ccc(C#CC3(O)CCC3)cc2)ccc2cc(CNCC(C)C)n(C)c12` [Example 92, 4-[(1-hydroxycyclobutyl)ethynyl]-N-(2-{[(2-methylpropyl)amino]methyl}-1,7-dimethyl-1H-indol-6-yl)benzamide], the melting point is 222 to 223 °C. Still for that read-out and setting: the result for `Cc1c(NC(=O)c2ccc(C#CC3(O)CCC3)cc2)ccc2cc(CNCC(C)(C)C)n(C)c12` [Example 93, N-(2-{[(2,2-dimethylpropyl)amino]methyl}-1,7-dimethyl-1H-indol-6-yl)-4-[(1-hydroxycyclobutyl)ethynyl]benzamide] reads 232 to 233 °C; that for `Cc1c(NC(=O)c2ccc(C#CC3(O)CCC3)cc2)ccc2cc(CNCC3CCOCC3)n(C)c12` [Example 94, N-(1,7-dimethyl-2-{[(tetrahydro-2H-pyran-4-ylmethyl)amino]methyl}-1H-indol-6-yl)-4-[(1-hydroxycyclobutyl)ethynyl]benzamide], 202 to 204 °C. Same read-out and setting: the value for `Cc1c(CNCC(C)C)[nH]c2c(C)c(NC(=O)c3ccc(OC[C@@H]4CCCO4)cc3)ccc12` [Example 96, N-(2-{[(2-methylpropyl)amino]methyl}-3,7-dimethyl-1H-indol-6-yl)-4-[(2S)-tetrahydrofuran-2-ylmethoxy]benzamide] was 118 to 119 °C; that for `Cc1c(CNCC2CCOCC2)[nH]c2c(C)c(NC(=O)c3ccc(OC[C@@H]4CCCO4)cc3)ccc12` [Example 97, N-(3,7-dimethyl-2-{[(tetrahydro-2H-pyran-4-ylmethyl)amino]methyl}-1H-indol-6-yl)-4-[(2S)-tetrahydrofuran-2-ylmethoxy]benzamide] was 184 to 185 °C; that for `Cc1c(CNCC(C)(C)C)[nH]c2c(C)c(NC(=O)c3ccc(OC[C@@H]4CCCO4)cc3)ccc12` [Example 98, N-(2-{[(2,2-dimethylpropyl)amino]methyl}-3,7-dimethyl-1H-indol-6-yl)-4-[(2S)-tetrahydrofuran-2-ylmethoxy]benzamide] was 178 to 179 °C. The same measure, in the same setting: the value for `Cc1c(CN[C@H]2CC[C@](C)(O)CC2)[nH]c2c(C)c(NC(=O)c3ccc(OC[C@@H]4CCCO4)cc3)ccc12` [Example 99, N-(2-{[(trans-4-hydroxy-4-methylcyclohexyl)amino]methyl}-3,7-dimethyl-1H-indol-6-yl)-4-[(2S)-tetrahydrofuran-2-ylmethoxy]benzamide] was 134 to 135 °C. `Cc1c(CNC2CCCC2)[nH]c2c(C)c(NC(=O)c3ccc(OC[C@@H]4CCCO4)cc3)ccc12` [Example 100, N-{2-[(cyclopentylamino)methyl]-3,7-dimethyl-1H-indol-6-yl}-4-[(2S)-tetrahydrofuran-2-ylmethoxy]benzamide] registered a melting point of 107 to 109 °C. For the compound `Cc1c(CNCC(C)(C)O)[nH]c2c(C)c(NC(=O)c3ccc(OC[C@@H]4CCCO4)cc3F)ccc12` [Example 101, 2-fluoro-N-(2-{[(2-hydroxy-2-methylpropyl)amino]methyl}-3,7-dimethyl-1H-indol-6-yl)-4-[(2S)-tetrahydrofuran-2-ylmethoxy]benzamide], the melting point is 151 to 152 °C. The same measure, in the same setting: the result for `Cc1c(CN[C@H]2CC[C@](C)(O)CC2)[nH]c2c(C)c(NC(=O)c3ccc(OC[C@@H]4CCCO4)cc3F)ccc12` [Example 102, 2-fluoro-N-(2-{[(trans-4-hydroxy-4-methylcyclohexyl)amino]methyl}-3,7-dimethyl-1H-indol-6-yl)-4-[(2S)-tetrahydrofuran-2-ylmethoxy]benzamide] reads 177 to 178 °C. For `Cc1c(CNCC(C)C)[nH]c2c(F)c(NC(=O)c3ccc(OC[C@@H]4CCCO4)cc3)ccc12` [Example 104, N-(7-fluoro-2-{[(2-methylpropyl)amino]methyl}-3-methyl-1H-indol-6-yl)-4-[(2S)-tetrahydrofuran-2-ylmethoxy]benzamide], the melting point fell in the range of 134 to 135 °C.

As to `Cc1c(CNCC(C)C)n(C)c2c(C)c(NC(=O)c3ccc(OC[C@@H]4CCCO4)cc3)ccc12` [Example 106, N-(2-{[(2-methylpropyl)amino]methyl}-1,3,7-trimethyl-1H-indol-6-yl)-4-[(2S)-tetrahydrofuran-2-ylmethoxy]benzamide], the melting point was in the range of 171 to 172 °C. On the same count and under the same terms, the result for `Cc1c(CNCC2CCOCC2)n(C)c2c(C)c(NC(=O)c3ccc(OC[C@@H]4CCCO4)cc3)ccc12` [Example 107, 4-[(2S)-tetrahydrofuran-2-ylmethoxy]-N-(1,3,7-trimethyl-2-{[(tetrahydro-2H-pyran-4-ylmethyl)amino]methyl}-1H-indol-6-yl)benzamide] reads 173 to 174 °C; that for `Cc1c(CNCC(C)(C)O)n(C)c2c(C)c(NC(=O)c3ccc(OC[C@@H]4CCCO4)cc3)ccc12` [Example 108, N-(2-{[(2-hydroxy-2-methylpropyl)amino]methyl}-1,3,7-trimethyl-1H-indol-6-yl)-4-[(2S)-tetrahydrofuran-2-ylmethoxy]benzamide], 186 to 188 °C; that for `Cc1c(CN[C@H]2CC[C@](C)(O)CC2)n(C)c2c(C)c(NC(=O)c3ccc(OC[C@@H]4CCCO4)cc3)ccc12` [Example 109, N-(2-{[(trans-4-hydroxy-4-methylcyclohexyl)amino]methyl}-1,3,7-trimethyl-1H-indol-6-yl)-4-[(2S)-tetrahydrofuran-2-ylmethoxy]benzamide], 183 to 184 °C. On the same count and under the same terms, the result for `Cc1c(CNCC(C)(C)O)n(C)c2c(C)c(NC(=O)c3ccc(OC[C@@H]4CCCO4)cc3F)ccc12` [Example 111, 2-fluoro-N-(2-{[(2-hydroxy-2-methylpropyl)amino]methyl}-1,3,7-trimethyl-1H-indol-6-yl)-4-[(2S)-tetrahydrofuran-2-ylmethoxy]benzamide] reads 131 to 132 °C; that for `Cc1c(CN[C@H]2CC[C@](C)(O)CC2)n(C)c2c(F)c(NC(=O)c3ccc(OC[C@@H]4CCCO4)cc3)ccc12` [Example 112, N-(7-fluoro-2-{[(trans-4-hydroxy-4-methylcyclohexyl)amino]methyl}-1,3-dimethyl-1H-indol-6-yl)-4-[(2S)-tetrahydrofuran-2-ylmethoxy]benzamide], 122 to 124 °C. The same measure, in the same setting: the value for `Cc1c(CNCC2CCOCC2)n(C)c2c(F)c(NC(=O)c3ccc(OC[C@@H]4CCCO4)cc3)ccc12` [Example 113, N-(7-fluoro-1,3-dimethyl-2-{[(tetrahydro-2H-pyran-4-ylmethyl)amino]methyl}-1H-indol-6-yl)-4-[(2S)-tetrahydrofuran-2-ylmethoxy]benzamide] was 132 to 134 °C.
